The numbers were not newly measured in US20070190090A1, “SIALAGOGUE BASED ORAL CARE PRODUCTS” (WhiteHill Oral Technologies, Inc., priority 2006, published 2007), which cites them from elsewhere.

Series [1] concerns certain microorganisms (Gram positive and Gram negative bacteria). The settings on record: toxicity varying for Gram positive and Gram negative bacteria.
For series [2] the following is noted: mice, orally.

`C/C=C/C=C\CC/C=C/C(=O)NCC(C)C` [affinin, N-isobutyl-2E,6Z,8E-decatrienamide]: the “toxicity to certain microorganisms” value in series [1] is “toxic”. In series [2] (doses from 2.5 to 10.0 mg/kg), the analgesic effect entry was “analgesic effect”. In series [2] (highest dose (10.0 mg/kg)), the deaths result was “two out of five” and the “effect on normal motor activity” value is “severe depression of normal motor activity”.
